# Results as given in ChEMBL document CHEMBL4024781, “Comprehensive Synthesis of Amino Acid-Derived Thiazole Peptidomimetic Analogues to Understand the Enigmatic Drug/Substrate-Binding Site of P-Glycoprotein” (J Med Chem, 2018).
# Tests used:
# P-gp (ABCB1) [1] = target: T1, P-gp (ABCB1) (Homo sapiens, UniProt P08183); assay: Activation of human P-gp expressed in high five insect cell membrane vesicles by measuring the vanadate-sensitive ATPase activity of P-gp at 2.5 uM preincubated for 5 mins in the presence of sodium orthovanadate measured after 20 mins by colorimetric method; conditions: read-out: Activity
# P-gp (ABCB1) [2] = target: T1, P-gp (ABCB1); assay: Activation of human P-gp expressed in high five insect cell membrane vesicles by measuring the vanadate-sensitive ATPase activity of P-gp at 0.5 uM preincubated for 5 mins in the presence of sodium orthovanadate measured after 20 mins by colorimetric method; conditions: read-out: Activity
# T1 sequence (P08183 whole entry): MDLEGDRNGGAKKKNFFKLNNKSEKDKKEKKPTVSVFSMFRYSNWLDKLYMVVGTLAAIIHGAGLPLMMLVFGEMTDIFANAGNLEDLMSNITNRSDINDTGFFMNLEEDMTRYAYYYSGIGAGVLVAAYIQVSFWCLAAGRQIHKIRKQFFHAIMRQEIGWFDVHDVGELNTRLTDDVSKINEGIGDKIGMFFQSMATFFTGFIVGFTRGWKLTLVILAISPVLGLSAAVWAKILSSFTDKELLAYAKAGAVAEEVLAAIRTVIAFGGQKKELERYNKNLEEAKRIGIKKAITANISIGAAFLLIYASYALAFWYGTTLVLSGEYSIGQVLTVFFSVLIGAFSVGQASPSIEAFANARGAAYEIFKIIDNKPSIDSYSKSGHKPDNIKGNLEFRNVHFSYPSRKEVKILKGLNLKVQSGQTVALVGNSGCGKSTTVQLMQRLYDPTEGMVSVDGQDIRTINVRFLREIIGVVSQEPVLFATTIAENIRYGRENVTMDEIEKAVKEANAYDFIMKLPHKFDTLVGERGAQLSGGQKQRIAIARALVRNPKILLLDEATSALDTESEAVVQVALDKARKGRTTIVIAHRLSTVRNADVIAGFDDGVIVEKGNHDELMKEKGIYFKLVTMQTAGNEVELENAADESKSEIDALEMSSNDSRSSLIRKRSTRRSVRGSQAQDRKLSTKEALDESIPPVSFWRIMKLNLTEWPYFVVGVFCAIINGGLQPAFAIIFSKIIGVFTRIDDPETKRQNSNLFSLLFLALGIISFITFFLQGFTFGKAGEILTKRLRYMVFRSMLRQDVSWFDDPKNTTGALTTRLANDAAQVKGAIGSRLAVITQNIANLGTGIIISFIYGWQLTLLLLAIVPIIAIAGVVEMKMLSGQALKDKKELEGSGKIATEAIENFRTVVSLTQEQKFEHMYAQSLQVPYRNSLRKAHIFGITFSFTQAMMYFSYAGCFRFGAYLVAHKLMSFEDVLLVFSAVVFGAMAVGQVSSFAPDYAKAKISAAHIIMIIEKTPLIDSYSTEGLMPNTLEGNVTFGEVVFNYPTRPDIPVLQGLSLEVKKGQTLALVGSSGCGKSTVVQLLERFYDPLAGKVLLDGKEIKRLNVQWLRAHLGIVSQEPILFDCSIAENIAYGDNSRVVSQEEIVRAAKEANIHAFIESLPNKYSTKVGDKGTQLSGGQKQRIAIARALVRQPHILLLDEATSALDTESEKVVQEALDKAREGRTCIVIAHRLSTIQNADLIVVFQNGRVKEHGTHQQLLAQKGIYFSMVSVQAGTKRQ
Compound,"activity at 20 min, 2.5 µM (P-gp (ABCB1) [1]) [%]","activity at 20 min, 0.5 µM (P-gp (ABCB1) [2]) [%]"
CC(C)[C@H](NC(=O)c1cscn1)c1nc(C(=O)NC2CCC(F)(F)CC2)cs1,49.7,–
CC(C)[C@H](NC(=O)c1ccccc1N=[N+]=[N-])c1nc(C(=O)Nc2ccccc2C(=O)c2ccccc2)cs1,182,142
COc1cc(C(=O)N2CCCC2c2nc(C(=O)NC3CCC(F)(F)CC3)cs2)cc(OC)c1OC (stereo not given),21,≤ 10
COc1cc(C(=O)NC(c2nc(C(=O)NCC3CCC(N)CC3)cs2)C(C)C)cc(OC)c1OC (stereo not given),≤ 10,≤ 10
COc1cc(C(=O)N[C@H](c2nc(C(=O)N[C@H]3CCCc4ccccc43)cs2)C(C)C)cc(OC)c1OC,123,108
COc1cc(C(=O)N[C@H](c2nc(C(=O)N3CCC(=O)CC3)cs2)C(C)C)cc(OC)c1OC,≤ 10,≤ 10
COc1cc(C(=O)NCc2nc(C(=O)NC3CCC(F)(F)CC3)cs2)cc(OC)c1OC,13,≤ 10
COc1cc(C(=S)N[C@H](c2nc(C(=S)NC3CCC(F)(F)CC3)cs2)C(C)C)cc(OC)c1OC,64,25
COc1cc(C(=O)N[C@H](c2nc(C(=O)NC3CCC(=O)CC3)cs2)C(C)C)cc(OC)c1OC,≤ 10,13.1
COc1cc(C(=O)N[C@H](c2nc(C(=S)NC3CCCCC3)cs2)C(C)C)cc(OC)c1OC,27,≤ 10
COc1cc(C(=O)N[C@H](c2nc(C(=O)N3CCC(C(F)(F)F)CC3)cs2)C(C)C)cc(OC)c1OC,75.6,13.3
CC(C)[C@H](NC(=O)c1cnc2ccccc2c1)c1nc(C(=O)NC2CCC(F)(F)CC2)cs1,83.9,–
COc1cc(C(=O)N[C@H](c2nc(C(=O)NC3CCN(Cc4ccccc4)CC3)cs2)C(C)C)cc(OC)c1OC,154,169
COc1cc(C(=O)N[C@H](c2nc(C(=O)Nc3ccc(F)cc3)cs2)C(C)C)cc(OC)c1OC,244,59.5
CC(C)[C@H](N)c1nc(C(=O)NC2CCC(F)(F)CC2)cs1,≤ 10,≤ 10
COc1cc(C(=O)N[C@H](c2nc(C(=O)N(C3CCCCC3)C3CCCCC3)cs2)C(C)C)cc(OC)c1OC,134,109
COc1cc(C(=O)N[C@H](c2nc(C(=O)NC3CCN(C(=O)OC(C)(C)C)CC3)cs2)C(C)C)cc(OC)c1OC,48,52.7
COc1cc(C(=O)N[C@H](c2nc(C(=O)Nc3ccccc3C(=O)c3ccc(N=[N+]=[N-])cc3)cs2)C(C)C)cc(OC)c1OC,169,148
CC(C)[C@H](NC(=O)c1cccc(N=[N+]=[N-])c1)c1nc(C(=O)Nc2ccccc2C(=O)c2ccccc2)cs1,194,122
COc1cc(C(=O)N[C@H](c2nc(C(=O)NC3CCS(=O)(=O)CC3)cs2)C(C)C)cc(OC)c1OC,≤ 10,≤ 10
CC(C)[C@H](NC(=O)c1cncnc1)c1nc(C(=O)NC2CCC(F)(F)CC2)cs1,≤ 10,–
COc1ccc(C(=O)N[C@H](c2nc(C(=O)NC3CCC(F)(F)CC3)cs2)C(C)C)cc1,35.8,–
COc1cc(C(=O)C(=O)N[C@H](c2nc(C(=O)NC3CCC(F)(F)CC3)cs2)C(C)C)cc(OC)c1OC,178,–
CC(C)[C@H](NC(=O)C1CCOCC1)c1nc(C(=O)NC2CCC(F)(F)CC2)cs1,≤ 10,–
COc1ccc(C(=O)N[C@H](c2nc(C(=O)NC3CCC(F)(F)CC3)cs2)C(C)C)cc1OC,11.9,–
COc1cc(CC(=O)N[C@H](c2nc(C(=O)NC3CCC(F)(F)CC3)cs2)C(C)C)cc(OC)c1OC,70.2,–
CC(C)[C@H](NC(=O)c1ccccc1)c1nc(C(=O)NC2CCC(F)(F)CC2)cs1,10.5,–
